The values that follow come from patent publication US20240239788A1, “SMALL MOLECULE INHIBITORS OF KRAS G12D MUTANT” (Merck Sharp & Dohme LLC, priority 2021, published 2024).

The term IC50 denotes the concentration at which inhibition is half-maximal.

Like-named read-outs stand apart in the source and are kept apart here.

Test [1] concerns the target KRAS protein containing G12D mutation (Homo sapiens (Human), UniProt P01116, G12D). The test can be described thus: SOS-catalyzed nucleotide exchange assay (GNE), TR-FRET. Type of test: biochemical. Conditions: biotinylated KRAS G12D, SOS and GTP, 60-minute incubation. As to the method: Compounds are added to this complex and then after a 60-minute incubation time the mixture is treated with SOS and unlabeled GTP. Small molecule inhibitors stabilize the Bodipy-GDP complex whereas the untreated protein rapidly exchanges Bodipy-GDP for unlabeled GTP resulting in reduced TR-FRET signal.
This solution is referred to as biotinylated KRAS G12D stock solution.
In general terms: Time-resolved FRET reads energy transfer from a long-lived donor to a nearby acceptor.

The subject of test [2] is AsPC-1 cells containing homozygous KRAS-G12D activating mutation. Description: Cellular phospho-ERK assay (Examples 1a-106). Conditions: read-out: IC50 (nM) pERK (Cell). Type of test: cell-based. The text has this:
5% CO? overnight. […] Assay plates were read on a EnVision Multimode Plate Reader (PerkinElmer) and the ratio of p-Erk vs total Erk in each well was used as the final readout.

Setting [3] is: Homo sapiens, ASPC1, 2 h, AsPC-1 cells, 2 hours, ratio of p-Erk vs total Erk.
Setting [4] is: AsPC-1 cells, 2 hours, ratio of p-Erk vs total Erk.

KRAS protein containing G12D mutation, sequence (P01116 other isoform, or with tags, fused parts or gaps G12D (already in the parent)): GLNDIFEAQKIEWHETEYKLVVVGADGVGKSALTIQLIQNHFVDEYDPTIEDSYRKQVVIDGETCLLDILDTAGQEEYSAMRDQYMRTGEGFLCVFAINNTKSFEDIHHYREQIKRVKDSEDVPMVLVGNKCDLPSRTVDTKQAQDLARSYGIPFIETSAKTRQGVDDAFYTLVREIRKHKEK

As to `NC(=O)C1(COc2nc(N3CC4CCC(C3)N4)c3cc(F)c(-c4cc(O)cc5ccccc45)c(F)c3n2)CNC1` [Example 15, 3-(((4-(3.8-diazabicyclo[3.2.1]octan-3-yl)-6,8-difluoro-7-(3-hydroxynaphthalen-1-yl)quinazolin-2-yl)oxy)methyl)azetidine-3-carboxamide], the figures for the IC50 in test [1] and in test [2] (setting [3]) were 2140 nM and 50800 nM, respectively.

As to `CN(C)CC1(COc2nc(N3CC4CCC(C3)N4)c3cc(Cl)c(-c4cc(O)ccc4C45CC(C4)C5)c(F)c3n2)CC1` [Example 47, 3-(4-(3,8-diazabicyclo[3.2.1]octan-3-yl)-6-chloro-2-((1-((dimethylamino)methyl)cyclopropyl)methoxy)-8-fluoroquinazolin-7-yl)-4-(bicyclo[1.1.1]pentan-1-yl)phenol], the 50% inhibitory concentration (IC50) was 551 nM in test [1] and 5790 nM in test [2] (setting [3]).

`C=C[C@@H]1[C@@H]2CC[C@@H](CN2)N1c1nc(OCC2(CN(C)C)CC2)nc2c(F)c(-c3cc(O)cc4ccccc34)c(F)cc12` [Example 6b, 4-(2-((1-((dimethylamino)methyl)cyclopropyl)methoxy)-6,8-difluoro-4-((1S,3R,4S)-3-vinyl-2,5-diazabicyclo[2.2.2]octan-2-yl)quinazolin-7-yl)naphthalen-2-ol]: the values for the IC50 in test [1] and in test [2] (setting [3]) were 426 nM and 5500 nM, respectively.

For `Cc1cc(N)nc(-c2c(F)cc3c(N4CC5CCC(C4)N5)nc(OCC4(CN5CCOCC5)CC4)nc3c2F)c1Cl` [Ex 88, 6-(4-((1R,5S)-3,8-diazabicyclo[3.2.1]octan-3-yl)-6,8-difluoro-2-((1-(morpholinomethyl)cyclopropy)methoxy)quinazolin-7-yl)-5-chloro-4-methylpyridin-2-amine], the IC50 in test [1] is 1350 nM; in test [2] (setting [3]), 13200 nM.

In the case of `Oc1cc(-c2c(F)cc3c(N4CC5CCC(C4)N5)nc(N4CC5(CCCN5)C4)nc3c2F)c2ccccc2c1` [Example 14, 4-(4-(3.8-diazabicyclo[3.2.1]octan-3-yl)-6,8-difluoro-2-(2,5-diazaspiro[3.4]octan-2-yl)quinazolin-7-yl)naphthalen-2-ol], the IC50 was determined as 1570 nM in test [1] and 24000 nM in test [2] (setting [3]).

On to `COCC12CCC(CN(c3nc(OCC4(CN(C)C)CC4)nc4c(F)c(-c5cc(O)cc6ccccc56)c(Cl)cc34)C1)N2` (centres unmarked) [Example 37, 4-(6-chloro-2-((1-((dimethylamino)meth-yl)cyclopro-pyl)methoxy)-8-fluoro-4-(1-(methoxy-methyl)-3,8-diazabicyclo[3.2.1]oc-tan-3-yl)quinazolin-7-yl)naphthalen-2-ol], for which the values for the concentration for half-maximal inhibition (IC50) in test [1] and in test [2] (setting [3]) were 571 nM and 16700 nM, respectively.

With `CN(C)CC1(COc2nc(N3C[C@H]4CC[C@@H](C3)N4)c3cc(Cl)c(-c4cccc5cccc(C#N)c45)c(F)c3n2)CC1` [Example 60, 8-(4-((1R,5S)-3,8-diazabicyclo[3.2.1]octan-3-yl)-6-chloro-2-((1-((dimethylamino)methyl)cyclopropyl)methoxy)-8-fluoroquinazolin-7-yl)-1-naphthonitrile], the concentration for half-maximal inhibition (IC50) was determined as 1590 nM in test [1] and 8760 nM in test [2] (Homo sapiens, ASPC1, 2 h).

Take `Oc1cc(-c2c(F)cc3c(N4CC5CC(F)C(C4)N5)nc(OCC4(CN5CCOCC5)CC4)nc3c2F)c2ccccc2c1` (single isomer, unassigned) [Ex. 3a, 4-(6,8-difluoro-4-(6-fluoro-3,8-diazabicyclo[3.2.1]octan-3-yl)-2-((1-(morpholinomethyl)cyclopropyl)methoxy)quinazolin-7-yl)naphthalen-2-ol]: the values for the IC50 in test [1] and in test [2] (setting [4]) were 506 nM and 3610 nM, respectively.

In the case of `C[C@]12CC[C@H](CN(c3nc(OCC4(CN5CCOCC5)CC4)nc4c(F)c(-c5c(F)cc(F)c6ccc(N)nc56)c(Cl)cc34)C1)N2` (single isomer, unassigned) [Ex. 91a], the IC50 in test [1] was determined as 11100 nM; in test [2] (setting [4]), 17600 nM.

With `CNc1nc2c(-c3c(Cl)cc4c(N5CC6CCC(C5)N6)nc(OCC5(CN6CCOCC6)CC5)nc4c3F)ccc(F)c2s1` [Example 51, 4-(4-(3,8-diazabicyclo[3.2.1]octan-3-yl)-6-chloro-8-fluoro-2-((1-(morpholinomethyl)cyclopropyl)methoxy)quinazolin-7-yl)-7-fluoro-N-methylbenzo[d]thiazol-2-amine], the IC50 in test [1] came to 3930 nM; in test [2] (setting [3]) it was 11200 nM.

For the compound `CN(C)CC1(COc2nc(N3CC4CCC(C3)N4)c3cc(Cl)c(-c4c(Cl)c(F)cc5[nH]ncc45)c(F)c3n2)CC1` [Example 55, 1-(1-(((4-(3,8-diazabicyclo[3.2.1]octan-3-yl)-6-chloro-7-(5-chloro-6-fluoro-1H-indazol-4-yl)-8-fluoroquinazolin-2-yl)oxy)methyl)cyclopropyl)-N,N-dimethylmethanamine], the half-inhibitory concentration (IC50) in test [1] came to 969 nM; in test [2] (setting [3]), 7060 nM.

`Cc1c(Cl)cc2[nH]nc(C)c2c1-c1c(F)cc2c(N3C[C@H]4CC[C@@](C)(C3)N4)nc(OC[C@]3(CN(C)C)CC3(F)F)nc2c1F` [Ex 75, 1-((1R)-1-(((7-(6-chloro-3,5-dimethyl-1H-indazol-4-yl)-6,8-difluoro-4-((1S,5R)-1-methyl-3,8-diazabicyclo[3.2.1]octan-3-yl)quinazolin-2-yl)oxy)methyl)-2,2-difluorocyclopropyl)-N,N-dimethylmethanamine]: the IC50 was determined as 1440 nM in test [1] and 7160 nM in test [2] (setting [3]).

Regarding `Cc1cc2[nH]ncc2c(C2Cc3nc(OCC4(CN5CC[C@@H](F)C5)CC4)nc(N4C[C@H]5CC[C@@](C)(C4)N5)c3C(=O)N2)c1C(F)(F)F` (stereo partly drawn) [Ex. 98b, 2-((1-(((R)-3-fluoropyrrolidin-1-yl)methyl)cyclopropyl)methoxy)-7-(6-methyl-5-(trifluoromethyl)-1H-indazol-4-yl)-4-((1S,5R)-1-methyl-3,8-diazabicyclo[3.2.1]octan-3-yl)-7,8-dihydropyrido[4,3-d]pyrimidin-5(6H)-one], the IC50 in test [1] was found to be 11100 nM; in test [2] (setting [3]) it was 50800 nM.

On to `CC[C@@H]1[C@@H]2CC[C@@H](CN2)N1c1nc(OCC2(CN(C)C)CC2)nc2c(F)c(-c3cc(O)cc4ccccc34)c(F)cc12` [Example 10, 4-(2-((1-((dimethylamino)methyl)cyclopropyl)methoxy)-4-((1S,3R,4S)-3-ethyl-2,5-diazabicyclo[2,2,2]octan-2-yl)-6,8-difluoroquinazolin-7-yl)naphthalen-2-ol], for which the results for the IC50 in test [1] and in test [2] (setting [3]) were 2750 nM and 9830 nM, respectively.

Consider `Cc1c(Cl)cc2[nH]nc(C)c2c1-c1c(F)cc2c(N3CC4CCC(C3)N4)nc(OCC3(CN4CC[C@@H](F)C4)CC3)nc2c1F` (single isomer, unassigned) [Ex 71b], for which the IC50 worked out at 1340 nM in test [1] and 4240 nM in test [2] (setting [4]).

Turning to `C=C[C@H]1[C@@H]2CC[C@@H](CN2)N1c1nc(OCC2(CN(C)C)CC2)nc2c(F)c(-c3cc(O)cc4ccccc34)c(F)cc12` [Ex. 6a, 4-(2-((1-((dimethylamino)methyl)cyclopropyl)methoxy)-6,8-difluoro-4-((1S,3S,4S)-3-vinyl-2,5-diazabicyclo[2.2.2]octan-2-yl)quinazolin-7-yl)naphthalen-2-ol], the concentration for half-maximal inhibition (IC50) turned out to be 159 nM in test [1] and 13300 nM in test [2] (setting [3]).

For the compound `Nc1nc2c(F)ccc(-c3c(Cl)cc4c(N5CC6CCC(C5)N6)nc(OCC5(CN6CCOCC6)CC5)nc4c3F)c2s1` [Example 54, 7-(4-(3,8-diazabicyclo[3.2.1]octan-3-yl)-6-chloro-8-fluoro-2-((1-(morpholinomethyl)cyclopropyl)methoxy)quinazolin-7-yl)-4-fluorobenzo[d]thiazol-2-amine], the half-inhibitory concentration (IC50) in test [1] came out at 2650 nM; in test [2] (setting [3]), 14100 nM.

Regarding `Cc1cc2[nH]ncc2c(-c2c(F)cc3c(N4C[C@H]5CC[C@@H](C4)N5)nc(OCC4(CN(C)C)CC4(F)F)nc3c2F)c1Cl` (stereo partly drawn) [Example 64, 1-(1-(((4-((1R,5S)-3,8-diazabicyclo[3.2.1]octan-3-yl)-7-(5-chloro-6-methyl-1H-indazol-4-yl)-6,8-difluoroquinazolin-2-yl)oxy)methyl)-2,2-difluorocyclopropyl)-N,N-dimethylmethanamine], the IC50 came out at 146 nM in test [1] and 4380 nM in test [2] (setting [3]).

For the compound `Cc1c(Cl)cc2[nH]nc(C)c2c1-c1c(F)cc2c(N3CC4CCC(C3)N4)nc(OCC3(CN4CCOCC4)CC3)nc2c1F` [Ex 74, 4-((1-(((4-(3,8-diazabicyclo[3.2.1]octan-3-yl)-7-(6-chloro-3,5-dimethyl-1H-indazol-4-yl)-6,8-difluoroquinazolin-2-yl)oxy)methyl)cyclopropyl)methyl) morpholine], the values for the IC50 in test [1] and in test [2] (setting [3]) were 69.1 nM and 2000 nM, respectively.

On to `Cc1cc2[nH]ncc2c(-c2c(F)cc3c(N4C[C@H]5CC[C@@](C)(C4)N5)nc(OCC4(CN5CC[C@@H](F)C5)CC4)nc3c2F)c1C(F)(F)F` (single isomer, unassigned) [Ex 80b], for which the figures for the IC50 in test [1] and in test [2] (setting [4]) were 1320 nM and 5970 nM, respectively.

For `Cc1cc2[nH]ncc2c(C2Cc3nc(OCC4(CN5CC[C@@H](F)C5)CC4)nc(N4C[C@H]5CC[C@@](C)(C4)N5)c3CO2)c1C(F)(F)F` (stereo partly drawn) [Ex. 97, 2-((1-(((R)-3-fluoropyrrolidin-1-yl)methyl)cyclopropyl)methoxy)-7-(6-methyl-5-(trifluoromethyl)-1H-indazol-4-yl)-4-((1S,5R)-1-methyl-3,8-diazabicyclo[3.2.1]octan-3-yl)-7,8-dihydro-5H-pyrano[4,3-d]pyrimidine], the IC50 was found to be 3950 nM in test [1] and 24300 nM in test [2] (setting [3]).

Regarding `Cc1cc2[nH]ncc2c(C2Cc3nc(OC[C@]4(CN(C)C)CC4(F)F)nc(N4C[C@H]5CC[C@@](C)(C4)N5)c3C(=O)O2)c1C(F)(F)F` (single isomer, unassigned) [Ex. 96a], the IC50 in test [1] was determined as 1280 nM; in test [2] (setting [4]), 20800 nM.
